This is an account of results in patent US20020119898A1, “Fabric cleaning system” (Unilever Home & Personal Care USA, Division of Conopco, Inc., priority 2000, published 2002).

Some results are limits rather than exact numbers.

This data set can be described thus: pKa of Brönsted acidic or basic functional groups of the fluorescer. To be noted: functional groups comprised in the fluorescer. Format: physicochemical. The text has this:
In addition, a preferred group of […] can be described by the presence and pKa of certain functional groups in the fluorescer. Therefore, a preferred group of hydrophilic fluorescers comprises fluorescers having at least one or more Brönsted acidic, basic functional groups or mixtures thereof with a pKa of 7 or less. A Brönsted acidic functional group is generally defined as a —AH group having a pKa of 7 or less for the equilibrium dissociation constant Ka=[—A][H′]/[—AH]. Likewise a Brönsted basic functional group is generally defined as a —B group, the conjugate acid of it (i.e. BH^+) having a pKa of 7 or less for the equilibrium dissociation constant Ka=[—B][H^+]/[—BH^+]. Examples of acidic functional groups include sulphonate, carboxylate, sulphate, phosphate, phosphonate and phosphinate. Examples of basic functional groups include amino groups, primary, secondary and tertiary amine groups.

With `O=S(=O)([O-])c1ccccc1C=Cc1ccc(-c2ccc(C=Cc3ccccc3S(=O)(=O)[O-])cc2)cc1.[Na+].[Na+]` [TINOPAL™ CBS-X], the “pKa of functional groups” value is less than 7.
